From patent US9517222B2, “Method for the treatment of senile dementia of the Alzheimer's type” (Phenomenome Discoveries Inc., priority 2007, dated 2016)

Key:
Format in all cases: cell-based
wild type CHO cells = experiment: Restoration of PtdEt and EtnPl pools in vitro, wild type CHO cells; conditions: 20 μM, 72 hours
Description: (§1) FIGS. 25A-B show the relative change in the total EtnPls and PtdEt content. […] Values are normalized to untreated control CHO cells, and are an average of three independent experiments. Statistical significance was determined using a two-tailed t-test.
(§2) FIGS. 26A-B show the relative change in the DHA-EtnPls and DHA-PtdEt content. […] Values are normalized to untreated control CHO cells, and are an average of three independent experiments. Statistical significance was determined using a two-tailed t-test.
(§3) To investigate whether exogenous metabolic precursors can restore the ethanolamine phospholipids deficiency in vitro, a CHO cell line deficient in plasmalogen synthesis (NRel-4) was treated with the metabolic precursors 5a (sn-1-alkyl,sn-2-DHA glycerol) for 72 hours at a concentration of 20 μM, and its lipid profile was compared with the wild type cell line.

[1] = system: plasmalogen-deficient NRel-4 cells; experiment: Restoration of PtdEt and EtnPl pools in vitro, plasmalogen-deficient NRel-4 cells; conditions: 20 μM, 72 hours
Description: as §1, §2, §3

NRel-4 cell line = experiment: Total, free and esterified cholesterol in cultured cells (Cholesterol Quantification kit)
Description: Total cholesterol (solid bars), esterified cholesterol (hatched bars), and free cholesterol (dotted) content is represented as μg per million cells. C_V: control CHO cells treated with ethanol carrier; N_V: NRel4 cells treated with ethanol carrier; N_5a: Nrel-4 cells treated with metabolic precursor 5a (20 μM).
To test the effect of metabolite precursors on total and esterified cholesterol in vitro, the CHO/NRel-4 cell line model was used. […] CHO cell line cultured in the presence of the ethanol vehicle (C_V) has 6.66 μg total cholestero/million cells. This reflects the wild type phenotype, and was used for normalization. The NRel-4 cell line deficient in plasmalogen synthesis cultured in the presence of ethanol vehicle (N_V) had 10.75 μg total cholestero/million cells (61% higher than control). Culturing the deficient cells with the metabolic precursor 5a (sn-1-alkyl, sn-2-DHA glycerol) for 72 hours at a concentration of 20 µM (N_5a) reduced the total cholesterol content to […] (24% higher than control). […] Treatment with 5a reduced the free cholesterol content to 5.8 μg/million cells. A reciprocal trend was observed when assaying the fraction of cholesterol that was esterified in the cell lines.

CC/C=C\C/C=C\C/C=C\C/C=C\C/C=C\C/C=C\CCC(=O)OC(CO)COCCCCCCCCCCCCCCCC (racemic) [Metabolite 5a, (4Z,7Z,10Z,13Z,16Z,19Z)-1-(hexadecyloxy)-3-hydroxypropan-2-yl docosa-4,7,10,13,16,19-hexanenoate]
Relative total EtnPls content (wild type CHO cells; normalized to untreated control CHO cells): 86.9% | Total DHA-EtnPls pool (wild type CHO cells; of CHO levels): 136.8% | Total PtdEt content (wild type CHO cells; of untreated control): 54.9% | DHA-PtdEt pool (wild type CHO cells; vs untreated control CHO): 93.5% | Relative total EtnPls content ([1]; normalized to untreated control CHO cells, vehicle 10.8%): 44.2% | Total DHA-EtnPls pool ([1]; of CHO levels, vehicle 8.7%): 72.3% | Total PtdEt content ([1]; of the control CHO): 55.9% | DHA-PtdEt pool ([1]; vs untreated control CHO): 110.6% | Esterified cholesterol (NRel-4 cell line; NRel-4 cells treated with 5a, vehicle NRel-4 1.84): 2.49 μg/million cells | Free cholesterol content (NRel-4 cell line; NRel-4 cells treated with 5a, vehicle NRel-4 8.9, CHO 4.5): 5.8 μg/million cells | Total cholesterol content (NRel-4 cell line; NRel-4 cells, 72 hours, 20 μM (N_5a), vehicle NRel-4 10.75, CHO 6.66): 8.28 μg/million cells | Total cholesterol content higher than control (NRel-4 cell line; NRel-4 cells, 72 hours, 20 μM, vs CHO vehicle control): 24% | Increase in the esterified fraction of cholesterol (NRel-4 cell line; NRel-4 cells, vs vehicle-treated NRel-4): 34%
